Data from the supplement of paper PMC11208160.

experiment: recombinant UMI read abundance after kanamycin selection (control-corrected) (log10(CPM+1)); higher = more efficient recombination; extreme values may be limits of the assay; sequences stand for … in AGTGCAGAGAAAATCGGCCAGTTTTCTCTGCCTGCAGTCCGCATGCCGTGGGACCCCTTGGGTTCTAACCTGTTGCCTAGATTTATGCAGCGGACTGCCTTTCTCCCAAAGTGATAAACCGG…AGGTTGGTTTCACT; site = the 11-nt donor
Method: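 Pooled E. coli donor-specificity screen for the IS621 bridge recombinase. Each library member carries a reprogrammed 11-nt donor and a full-length LE bridge RNA expressed in cis from the natural promoter, with a paired donor-binding loop (8-nt LDG + 4-nt RDG) and a target-binding loop fixed to T5. It is co-electroporated with a T5 target plasmid; recombinase is induced with 0.07 mM IPTG and recombinants are selected on kanamycin. UMIs are counted as CPM, averaged over two biological replicates and corrected by the unselected control. Molecule = full bridge RNA written as DNA, built from the T5 scaffold: LDG = donor specificity nt 1-8, RDG = reverse complement of nt 8-11.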
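Note: IS621 bridge recombinase in Escherichia coli cells against a fixed T5 target plasmid.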

Row | Sequence | recombinant UMI read abundance (log10)
1 | ACTAGGGCATGGACCGGTTTTCCCGGTAATCCGTATTTGGT (site ACTAGCGCTAC) | 0.00536
2 | ACTAGGGCATGGACCGGTTTTCCCGGTAATCCGTATTTGGT (site ACTAGGGCTAC) | 1.2
3 | ACTAGGGCATGGACCGGTTTTCCCGGTAATCCGTATTTGGT (site ACTAGTGCTAC) | 0.0165
4 | ACTAGTACATGGACCGGTTTTCCCGGTAATCCGTATTTGGT (site ACTAGTACTAC) | 1.19
5 | ACTAGTACATGGACCGGTTTTCCCGGTAATCCGTATTTGGT (site ACTAGTCCTAC) | 0.00589
6 | ACTAGTACATGGACCGGTTTTCCCGGTAATCCGTATTTGGT (site ACTAGTGCTAC) | 0.181
7 | ACTAGTACATGGACCGGTTTTCCCGGTAATCCGTATTTGGT (site ACTAGTTCTAC) | 0
8 | ACTAGTGCATGGACCGGTTTTCCCGGTAATCCGTATTTGCC (site ACTAGTGCTGG) | 1.93
9 | ACTAGTTCATGGACCGGTTTTCCCGGTAATCCGTATTTGAA (site ACTAGTTCTTT) | 1.03
10 | ACTATGCCATGGACCGGTTTTCCCGGTAATCCGTATTTGTC (site ACTATGCCTGA) | 0
11 | ACTCATCCATGGACCGGTTTTCCCGGTAATCCGTATTTGAC (site ACACATCCTGT) | 0
12 | ACTCATCCATGGACCGGTTTTCCCGGTAATCCGTATTTGAC (site ACCCATCCTGT) | 0.872
13 | ACTCATCCATGGACCGGTTTTCCCGGTAATCCGTATTTGAC (site ACGCATCCTGT) | 0.525
14 | ACTCATCCATGGACCGGTTTTCCCGGTAATCCGTATTTGAC (site ACTCATCCTGT) | 0.798
15 | ACTCCAACATGGACCGGTTTTCCCGGTAATCCGTATTTGCT (site ACTCCAACTAG) | 1.66
16 | ACTCCACCATGGACCGGTTTTCCCGGTAATCCGTATTTGTG (site ACTCCACCTCA) | 0.0232
17 | ACTCCGACATGGACCGGTTTTCCCGGTAATCCGTATTTGGC (site ACTCCGACTGC) | 1.98
18 | ACTCGAACATGGACCGGTTTTCCCGGTAATCCGTATTTGTC (site ACACGAACTGA) | 0
19 | ACTCGAACATGGACCGGTTTTCCCGGTAATCCGTATTTGTC (site ACCCGAACTGA) | 1.84
20 | ACTCGAACATGGACCGGTTTTCCCGGTAATCCGTATTTGTC (site ACGCGAACTGA) | 1.26
21 | ACTCGAACATGGACCGGTTTTCCCGGTAATCCGTATTTGTC (site ACTCGAACTGA) | 2
22 | ACTCGCTCATGGACCGGTTTTCCCGGTAATCCGTATTTGGT (site ACTCGCTCTAC) | 2.03
23 | ACTCTACCATGGACCGGTTTTCCCGGTAATCCGTATTTGCT (site ACTCTACCTAG) | 0
24 | ACTGACACATGGACCGGTTTTCCCGGTAATCCGTATTTGAC (site ACTGACACTGT) | 2.83

Row | Sequence | recombinant UMI read abundance (log10)
25 | ACTTATGCATGGACCGGTTTTCCCGGTAATCCGTATTTGCT (site ACTTATGCTAG) | 0.0248
26 | ACTTCGCCATGGACCGGTTTTCCCGGTAATCCGTATTTGCT (site ACTTCGCCTAG) | 0.0122
27 | ACTTGATCATGGACCGGTTTTCCCGGTAATCCGTATTTGGC (site ACTTGATCTGC) | 1.24
28 | ACTTGCCCATGGACCGGTTTTCCCGGTAATCCGTATTTGAT (site ACTTGCCCTAT) | 0.398
29 | ACTTGCCCATGGACCGGTTTTCCCGGTAATCCGTATTTGAT (site CCTTGCCCTAT) | 0.0521
30 | ACTTGCCCATGGACCGGTTTTCCCGGTAATCCGTATTTGAT (site GCTTGCCCTAT) | 0.0168
31 | ACTTGCCCATGGACCGGTTTTCCCGGTAATCCGTATTTGAT (site TCTTGCCCTAT) | 0.0192
32 | ACTTTGGCATGGACCGGTTTTCCCGGTAATCCGTATTTGTA (site ACTTTGGCTTA) | 1.26
33 | AGAAAACCATGGACCGGTTTTCCCGGTAATCCGTATTTGCG (site AGAAAACCTCG) | 0
34 | AGAAACGCATGGACCGGTTTTCCCGGTAATCCGTATTTGCT (site AGAAAAGCTAG) | 1.84
35 | AGAAACGCATGGACCGGTTTTCCCGGTAATCCGTATTTGCT (site AGAAACGCTAG) | 2.81
36 | AGAAACGCATGGACCGGTTTTCCCGGTAATCCGTATTTGCT (site AGAAAGGCTAG) | 0
37 | AGAAACGCATGGACCGGTTTTCCCGGTAATCCGTATTTGCT (site AGAAATGCTAG) | 0
38 | AGAAAGACATGGACCGGTTTTCCCGGTAATCCGTATTTGCG (site AGAAAGACTCG) | 2.63
39 | AGAAAGACATGGACCGGTTTTCCCGGTAATCCGTATTTGCG (site AGGAAGACTTG) | 0
40 | AGAAAGGCATGGACCGGTTTTCCCGGTAATCCGTATTTGCG (site AGAAAGGCTAG) | 1.07
41 | AGAAAGGCATGGACCGGTTTTCCCGGTAATCCGTATTTGCG (site AGAAAGGCTCG) | 1.64
42 | AGAAAGGCATGGACCGGTTTTCCCGGTAATCCGTATTTGCG (site AGAAAGGCTGG) | 0
43 | AGAAAGGCATGGACCGGTTTTCCCGGTAATCCGTATTTGCG (site AGAAAGGCTTG) | 1.15
44 | AGAAAGGCATGGACCGGTTTTCCCGGTAATCCGTATTTGCT (site AAAAAGGCTAG) | 0
45 | AGAAAGGCATGGACCGGTTTTCCCGGTAATCCGTATTTGCT (site ACAAAGGCTAG) | 0.00966
46 | AGAAAGGCATGGACCGGTTTTCCCGGTAATCCGTATTTGCT (site AGAAAAGCTAG) | 0
47 | AGAAAGGCATGGACCGGTTTTCCCGGTAATCCGTATTTGCT (site AGAAACGCTAG) | 0
48 | AGAAAGGCATGGACCGGTTTTCCCGGTAATCCGTATTTGCT (site AGAAAGACTAG) | 0

Row | Sequence | recombinant UMI read abundance (log10)
49 | AGAAAGGCATGGACCGGTTTTCCCGGTAATCCGTATTTGCT (site AGAAAGCCTAG) | 0
50 | AGAAAGGCATGGACCGGTTTTCCCGGTAATCCGTATTTGCT (site AGAAAGGCTAA) | 0.446
51 | AGAAAGGCATGGACCGGTTTTCCCGGTAATCCGTATTTGCT (site AGAAAGGCTAC) | 0.019
52 | AGAAAGGCATGGACCGGTTTTCCCGGTAATCCGTATTTGCT (site AGAAAGGCTAG) | 2.58
53 | AGAAAGGCATGGACCGGTTTTCCCGGTAATCCGTATTTGCT (site AGAAAGGCTAT) | 1.27
54 | AGAAAGGCATGGACCGGTTTTCCCGGTAATCCGTATTTGCT (site AGAAAGGCTCG) | 1.65
55 | AGAAAGGCATGGACCGGTTTTCCCGGTAATCCGTATTTGCT (site AGAAAGGCTGG) | 0.262
56 | AGAAAGGCATGGACCGGTTTTCCCGGTAATCCGTATTTGCT (site AGAAAGGCTTG) | 0
57 | AGAAAGGCATGGACCGGTTTTCCCGGTAATCCGTATTTGCT (site AGAAAGTCTAG) | 0
58 | AGAAAGGCATGGACCGGTTTTCCCGGTAATCCGTATTTGCT (site AGAAATGCTAG) | 0
59 | AGAAAGGCATGGACCGGTTTTCCCGGTAATCCGTATTTGCT (site AGAACGGCTAG) | 0.235
60 | AGAAAGGCATGGACCGGTTTTCCCGGTAATCCGTATTTGCT (site AGAAGGGCTAG) | 0.224
61 | AGAAAGGCATGGACCGGTTTTCCCGGTAATCCGTATTTGCT (site AGAATGGCTAG) | 0
62 | AGAAAGGCATGGACCGGTTTTCCCGGTAATCCGTATTTGCT (site AGACAGGCTAG) | 0
63 | AGAAAGGCATGGACCGGTTTTCCCGGTAATCCGTATTTGCT (site AGAGAGGCTAG) | 0.846
64 | AGAAAGGCATGGACCGGTTTTCCCGGTAATCCGTATTTGCT (site AGATAGGCTAG) | 1.23
65 | AGAAAGGCATGGACCGGTTTTCCCGGTAATCCGTATTTGCT (site AGCAAGGCTAG) | 0
66 | AGAAAGGCATGGACCGGTTTTCCCGGTAATCCGTATTTGCT (site AGGAAGGCTAG) | 1.73
67 | AGAAAGGCATGGACCGGTTTTCCCGGTAATCCGTATTTGCT (site AGTAAGGCTAG) | 1.3
68 | AGAAAGGCATGGACCGGTTTTCCCGGTAATCCGTATTTGCT (site ATAAAGGCTAG) | 0
69 | AGAAAGGCATGGACCGGTTTTCCCGGTAATCCGTATTTGCT (site CGAAAGGCTAG) | 0.48
70 | AGAAAGGCATGGACCGGTTTTCCCGGTAATCCGTATTTGCT (site GGAAAGGCTAG) | 0.0101
71 | AGAAAGGCATGGACCGGTTTTCCCGGTAATCCGTATTTGCT (site TGAAAGGCTAG) | 0.932
72 | AGAAAGTCATGGACCGGTTTTCCCGGTAATCCGTATTTGCT (site AGAAAGACTAG) | 0
